Residues, ends and D or L forms follow the SMILES beside them.
Columns and labels:
[1] = molecular target: Calcitonin gene-related peptide type 1 receptor (Sus scrofa, UniProt Q8WN93)
[2] = molecular target: T1, Receptor activity-modifying protein 1 (Sus scrofa, UniProt Q867C0)
T1 sequence (Q867C0 whole entry): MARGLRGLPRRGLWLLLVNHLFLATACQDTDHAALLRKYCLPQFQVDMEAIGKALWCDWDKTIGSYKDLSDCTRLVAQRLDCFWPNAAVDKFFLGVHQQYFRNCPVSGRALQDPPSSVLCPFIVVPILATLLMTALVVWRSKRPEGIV

Calcitonin gene-related peptide type 1 receptor, sequence (Q8WN93 whole entry): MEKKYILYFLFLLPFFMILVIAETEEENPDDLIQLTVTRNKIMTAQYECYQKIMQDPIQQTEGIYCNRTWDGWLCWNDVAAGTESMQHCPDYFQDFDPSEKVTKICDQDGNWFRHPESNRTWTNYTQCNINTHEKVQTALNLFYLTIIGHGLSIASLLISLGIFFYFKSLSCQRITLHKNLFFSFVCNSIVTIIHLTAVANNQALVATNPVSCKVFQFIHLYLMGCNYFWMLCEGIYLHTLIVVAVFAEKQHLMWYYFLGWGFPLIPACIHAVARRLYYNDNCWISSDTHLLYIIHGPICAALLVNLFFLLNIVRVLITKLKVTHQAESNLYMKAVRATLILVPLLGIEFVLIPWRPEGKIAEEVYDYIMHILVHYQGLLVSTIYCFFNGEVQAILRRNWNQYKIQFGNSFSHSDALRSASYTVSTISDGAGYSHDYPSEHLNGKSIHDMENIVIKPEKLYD

SMILES: CC(C)[C@H](NC(=O)[C@H](CC(N)=O)NC(=O)[C@@H](NC(=O)[C@@H]1CCCN1C(=O)[C@@H](NC(=O)[C@@H](N)Cc1ccccc1)C(C)C)[C@@H](C)O)C(=O)NCC(=O)N1CCC[C@H]1C(=O)N[C@@H](Cc1ccccc1)C(=O)N[C@@H](C)C(=O)N[C@@H](Cc1ccccc1)C(N)=O [[Pro34,Phe35]h alpha-CGRP27-37] (H-FVPTNVGPFAF-NH2)
- Ki [1]: 50.7 nM
- Ki [2]: 118 nM

SMILES: CC(C)C[C@H](NC(=O)[C@H](CCCNC(=N)N)NC(=O)[C@H](Cc1cnc[nH]1)NC(=O)[C@@H](NC(=O)[C@@H](NC(=O)[C@@H]1CSSC[C@H](NC(=O)[C@H](C)N)C(=O)N[C@@H](CC(=O)O)C(=O)N[C@@H]([C@@H](C)O)C(=O)N[C@@H](C)C(=O)N[C@@H]([C@@H](C)O)C(=O)N1)C(C)C)[C@@H](C)O)C(=O)N[C@@H](C)C(=O)N1CCC[C@H]1C(=O)N[C@@H](CC(C)C)C(=O)N[C@@H](CC(C)C)C(=O)N[C@@H](CO)C(=O)N[C@@H](CCCNC(=N)N)C(=O)N[C@@H](CO)C(=O)NCC(=O)NCC(=O)N[C@H](C(=O)N[C@H](C(=O)N[C@@H](CCCCN)C(=O)N[C@@H](CC(N)=O)C(=O)N[C@@H](CC(N)=O)C(=O)N[C@@H](Cc1ccccc1)C(=O)N[C@H](C(=O)N1CCC[C@H]1C(=O)N[C@H](C(=O)N[C@@H](CC(N)=O)C(=O)N[C@H](C(=O)NCC(=O)N[C@@H](CO)C(=O)N[C@@H](CCCCN)C(=O)N[C@@H](C)C(=O)N[C@@H](Cc1ccccc1)C(N)=O)C(C)C)[C@@H](C)O)C(C)C)C(C)C)C(C)C [[Pro14]h alpha-CGRP] (HELM PEPTIDE1{A.C.D.T.A.T.C.V.T.H.R.L.A.P.L.L.S.R.S.G.G.V.V.K.N.N.F.V.P.T.N.V.G.S.K.A.F.[am]}$PEPTIDE1,PEPTIDE1,2:R3-7:R3$$$V2.0)
- Ki [1]: 9 nM
- Ki [2]: 5.5 nM

SMILES: CC(C)C[C@H](NC(=O)CNC(=O)[C@H](C)NC(=O)[C@H](CC(C)C)NC(=O)[C@H](CCCN=C(N)N)NC(=O)[C@H](Cc1cnc[nH]1)NC(=O)[C@@H](NC(=O)[C@@H](N)C(C)C)[C@@H](C)O)C(=O)N[C@@H](CC(C)C)C(=O)N[C@@H](CO)C(=O)N[C@@H](CCCN=C(N)N)C(=O)N[C@@H](CO)C(=O)NCC(=O)NCC(=O)N[C@H](C(=O)N[C@H](C(=O)N[C@@H](CCCCN)C(=O)N[C@@H](CC(N)=O)C(=O)N[C@@H](CC(N)=O)C(=O)N[C@@H](Cc1ccccc1)C(=O)N[C@H](C(=O)N1CCC[C@H]1C(=O)N[C@H](C(=O)N[C@@H](CC(N)=O)C(=O)N[C@H](C(=O)NCC(=O)N[C@@H](CO)C(=O)N[C@@H](CCCCN)C(=O)N[C@@H](C)C(=O)N[C@@H](CC1CCCCC1)C(N)=O)C(C)C)[C@@H](C)O)C(C)C)C(C)C)C(C)C [[Cha37]h alpha-CGRP8-37] (HELM PEPTIDE1{V.T.H.R.L.A.G.L.L.S.R.S.G.G.V.V.K.N.N.F.V.P.T.N.V.G.S.K.A.[Cha].[am]}$$$$V2.0)
- Ki [1]: 32.7 nM
- Ki [2]: 37.9 nM

SMILES: CC(C)C[C@H](NC(=O)CNC(=O)[C@H](C)NC(=O)[C@H](CC(C)C)NC(=O)[C@H](CCCN=C(N)N)NC(=O)[C@H](Cc1cnc[nH]1)NC(=O)[C@@H](NC(=O)[C@@H](NCc1ccc(O)cc1)C(C)C)[C@@H](C)O)C(=O)N[C@@H](CC(C)C)C(=O)N[C@@H](CO)C(=O)N[C@@H](CCCN=C(N)N)C(=O)N[C@@H](CO)C(=O)NCC(=O)NCC(=O)N[C@H](C(=O)N[C@H](C(=O)N[C@@H](CCCCN)C(=O)N[C@@H](CC(N)=O)C(=O)N[C@@H](CC(N)=O)C(=O)N[C@@H](Cc1ccccc1)C(=O)N[C@H](C(=O)N1CCC[C@H]1C(=O)N[C@H](C(=O)N[C@@H](CC(N)=O)C(=O)N[C@H](C(=O)NCC(=O)N[C@@H](CO)C(=O)N[C@@H](CCCCN)C(=O)N[C@@H](C)C(=O)N[C@@H](Cc1ccccc1)C(N)=O)C(C)C)[C@@H](C)O)C(C)C)C(C)C)C(C)C [[N-benzol]h alpha-CGRP8-37]
- Ki [1]: 0.27 nM
- Ki [2]: 0.072 nM

SMILES: CC(C)C[C@H](NC(=O)CNC(=O)[C@H](C)NC(=O)[C@H](CC(C)C)NC(=O)[C@H](CCCNC(=N)N)NC(=O)[C@H](Cc1cnc[nH]1)NC(=O)[C@@H](NC(=O)[C@@H](N)C(C)C)[C@@H](C)O)C(=O)N[C@@H](CC(C)C)C(=O)N[C@@H](CO)C(=O)N[C@@H](CCCNC(=N)N)C(=O)N[C@@H](CO)C(=O)NCC(=O)NCC(=O)N[C@H](C(=O)N[C@H](C(=O)N[C@@H](CCCCN)C(=O)N[C@@H](CC(N)=O)C(=O)N[C@@H](CC(N)=O)C(=O)N[C@@H](Cc1ccccc1)C(=O)N[C@H](C(=O)N1CCC[C@H]1C(=O)N[C@H](C(=O)N[C@@H](CC(N)=O)C(=O)N[C@H](C(=O)NCC(=O)N[C@@H](CO)C(=O)N[C@@H](CCCCN)C(=O)N[C@@H](C)C(=O)N[C@@H](Cc1ccccc1)C(N)=O)C(C)C)[C@@H](C)O)C(C)C)C(C)C)C(C)C
- Ki [2]: 5.7 nM

SMILES: CC(C)C[C@H](NC(=O)CNC(=O)[C@H](C)NC(=O)[C@H](CC(C)C)NC(=O)[C@H](CCCNC(=N)N)NC(=O)[C@H](Cc1cnc[nH]1)NC(=O)[C@@H](NC(=O)[C@@H](NC(=O)[C@@H]1CSSC[C@H](NC(=O)[C@H](C)N)C(=O)N[C@@H](CC(=O)O)C(=O)N[C@@H]([C@@H](C)O)C(=O)N[C@@H](C)C(=O)N[C@@H]([C@@H](C)O)C(=O)N1)C(C)C)[C@@H](C)O)C(=O)N[C@@H](CC(C)C)C(=O)N[C@@H](CO)C(=O)N[C@@H](CCCNC(=N)N)C(=O)N[C@@H](CO)C(=O)NCC(=O)NCC(=O)N[C@H](C(=O)N[C@H](C(=O)N[C@@H](CCCCN)C(=O)N[C@@H](CC(N)=O)C(=O)N[C@@H](CC(N)=O)C(=O)N[C@@H](Cc1ccccc1)C(=O)N[C@H](C(=O)N1CCC[C@H]1C(=O)N[C@H](C(=O)N[C@@H](CC(N)=O)C(=O)N[C@H](C(=O)NCC(=O)N[C@@H](CO)C(=O)N[C@@H](CCCCN)C(=O)N[C@@H](C)C(=O)N[C@@H](Cc1ccccc1)C(N)=O)C(C)C)[C@@H](C)O)C(C)C)C(C)C)C(C)C [h alpha-CGRP]
- Ki [2]: 0.08 nM

SMILES: CC(=O)N[C@H](C(=O)N[C@H](C(=O)N[C@@H](Cc1cnc[nH]1)C(=O)N[C@@H](CCCN=C(N)N)C(=O)N[C@@H](CC(C)C)C(=O)N[C@@H](C)C(=O)NCC(=O)N[C@@H](CC(C)C)C(=O)N[C@@H](CC(C)C)C(=O)N[C@@H](CO)C(=O)N[C@@H](CCCN=C(N)N)C(=O)N[C@@H](CO)C(=O)NCC(=O)NCC(=O)N[C@H](C(=O)N[C@H](C(=O)N[C@@H](CCCCN)C(=O)N[C@@H](CC(N)=O)C(=O)N[C@@H](CC(N)=O)C(=O)N[C@@H](Cc1ccccc1)C(=O)N[C@H](C(=O)N1CCC[C@H]1C(=O)N[C@H](C(=O)N[C@@H](CC(N)=O)C(=O)N[C@H](C(=O)NCC(=O)N[C@@H](CO)C(=O)N[C@@H](CCCCN)C(=O)N[C@@H](C)C(=O)N[C@@H](Cc1ccccc1)C(N)=O)C(C)C)[C@@H](C)O)C(C)C)C(C)C)C(C)C)[C@@H](C)O)C(C)C [[N-acetyl]h alpha-CGRP8-37]
- Ki [2]: 1.3 nM

SMILES: CC(C)C[C@H](NC(=O)CNC(=O)[C@H](C)NC(=O)[C@H](CC(C)C)NC(=O)[C@H](CCCN=C(N)N)NC(=O)[C@H](Cc1cnc[nH]1)NC(=O)[C@@H](NC(=O)[C@@H](N)C(C)C)[C@@H](C)O)C(=O)N[C@@H](CC(C)C)C(=O)N[C@@H](CO)C(=O)N[C@@H](CCCN=C(N)N)C(=O)N[C@@H](CO)C(=O)NCC(=O)NCC(=O)N[C@H](C(=O)N[C@H](C(=O)N[C@@H](CCCCN)C(=O)N[C@@H](CC(N)=O)C(=O)N[C@@H](CC(N)=O)C(=O)N[C@@H](Cc1ccccc1)C(=O)N[C@H](C(=O)N1CCC[C@H]1C(=O)N[C@H](C(=O)N[C@@H](CC(N)=O)C(=O)N[C@H](C(=O)NCC(=O)N[C@@H](CO)C(=O)N[C@@H](CCCCN)C(=O)N[C@@H](C)C(=O)N[C@@H](C)C(N)=O)C(C)C)[C@@H](C)O)C(C)C)C(C)C)C(C)C [[Ala37]h alpha-CGRP8-37] (H-VTHRLAGLLSRSGGVVKNNFVPTNVGSKAA-NH2)
- Ki [1]: 500 nM
- Ki [2]: 1020 nM

SMILES: CC(C)C[C@H](NC(=O)CNC(=O)[C@H](C)NC(=O)[C@H](CC(C)C)NC(=O)[C@H](CCCNC(=N)N)NC(=O)[C@H](Cc1cnc[nH]1)NC(=O)[C@@H](NC(=O)[C@@H](NC(=O)[C@@H]1NC(=O)[C@H]([C@@H](C)O)NC(=O)[C@H](C)NC(=O)[C@H]([C@@H](C)O)NC(=O)[C@H](CC(=O)O)NC(=O)[C@H](NC(=O)[C@H](C)N)C(C)(C)SSC1(C)C)C(C)C)[C@@H](C)O)C(=O)N[C@@H](CC(C)C)C(=O)N[C@@H](CO)C(=O)N[C@@H](CCCNC(=N)N)C(=O)N[C@@H](CO)C(=O)NCC(=O)NCC(=O)N[C@H](C(=O)N[C@H](C(=O)N[C@@H](CCCCN)C(=O)N[C@@H](CC(N)=O)C(=O)N[C@@H](CC(N)=O)C(=O)N[C@@H](Cc1ccccc1)C(=O)N[C@H](C(=O)N1CCC[C@H]1C(=O)N[C@H](C(=O)N[C@@H](CC(N)=O)C(=O)N[C@H](C(=O)NCC(=O)N[C@@H](CO)C(=O)N[C@@H](CCCCN)C(=O)N[C@@H](C)C(=O)N[C@@H](Cc1ccccc1)C(N)=O)C(C)C)[C@@H](C)O)C(C)C)C(C)C)C(C)C [[D-Pen2,7]h alpha-CGRP]
- Ki [1]: 21 nM
- Ki [2]: 15.2 nM

SMILES: CC(=O)NCSC[C@H](NC(=O)[C@H](C)N)C(=O)N[C@@H](CC(=O)O)C(=O)N[C@H](C(=O)N[C@@H](C)C(=O)N[C@H](C(=O)N[C@@H](CSCNC(C)=O)C(=O)N[C@H](C(=O)N[C@H](C(=O)N[C@@H](Cc1cnc[nH]1)C(=O)N[C@@H](CCCNC(=N)N)C(=O)N[C@@H](CC(C)C)C(=O)N[C@@H](C)C(=O)NCC(=O)N[C@@H](CC(C)C)C(=O)N[C@@H](CC(C)C)C(=O)N[C@@H](CO)C(=O)N[C@@H](CCCNC(=N)N)C(=O)N[C@@H](CO)C(=O)NCC(=O)NCC(=O)N[C@H](C(=O)N[C@H](C(=O)N[C@@H](CCCCN)C(=O)N[C@@H](CC(N)=O)C(=O)N[C@@H](CC(N)=O)C(=O)N[C@@H](Cc1ccccc1)C(=O)N[C@H](C(=O)N1CCC[C@H]1C(=O)N[C@H](C(=O)N[C@@H](CC(N)=O)C(=O)N[C@H](C(=O)NCC(=O)N[C@@H](CO)C(=O)N[C@@H](CCCCN)C(=O)N[C@@H](C)C(=O)N[C@@H](Cc1ccccc1)C(N)=O)C(C)C)[C@@H](C)O)C(C)C)C(C)C)C(C)C)[C@@H](C)O)C(C)C)[C@@H](C)O)[C@@H](C)O [[Cys(ACM)2,7]h alpha-CGRP]
- Ki [1]: 38.4 nM
- Ki [2]: 32 nM

Reference: BindingDB's records for PubMed 11714898 (Creighton University, 2001)
